Reference: ChEMBL document CHEMBL4706653, “Ultra-short lipopeptides against gram-positive bacteria while alleviating antimicrobial resistance” (Eur J Med Chem, 2021)
≈ marks a conversion by molar mass, not a printed value. Calls of active or inactive are those of the source. No cut-off for these calls is given here. Residues, ends and D or L forms follow the SMILES beside them. *: point of attachment. Myristoyl = CCCCCCCCCCCCCC(=O)*; Lauroyl = CCCCCCCCCCCC(=O)*

Experiments:
Staphylococcus aureus [1] = experiment: Antibiofilm activity against Staphylococcus aureus ATCC 25923 preformed biofilm assessed as preformed biofilm thickness at 64 uM after 24 hrs using LIVE/LEAD (SYTO-9/PI) staining by confocal laser scanning microscopy based 3D image analysis (reference value: 56 micrometer); type: functional
Cell membrane [2] = experiment: Induction of membrane disruption in Staphylococcus aureus ATCC 25923 assessed as formation of dent at 2 to 4 times MIC measured after 2 to 4 hrs by SEM analysis; type: subcellular; details: time 2-4 hrs
Cell membrane [3] = experiment: Induction of membrane disruption in Staphylococcus aureus ATCC 25923 assessed as increase in non-uniform cell debris level at 4 times MIC measured after 2 to 4 hrs by SEM analysis; type: subcellular; details: time 2-4 hrs
[4] = system: Staphylococcus epidermidis; experiment: Antimicrobial activity against Staphylococcus epidermidis ATCC 12228 after 18 hrs in presence of polymyxin B by checkerboard assay; type: functional, organism-based
[5] = system: Staphylococcus epidermidis; experiment: Potentiation of ciprofloxacin-induced antimicrobial activity against ciprofloxacin-resistant Staphylococcus epidermidis ATCC 12228 assessed as change in ciprofloxacin MIC at 2 uM after 18 hrs by broth microdilution method relative to ciprofloxacin MIC; type: functional
Staphylococcus aureus [6] = experiment: Antimicrobial activity against Staphylococcus aureus ATCC 25923 after 18 hrs by broth microdilution method; type: functional
Staphylococcus aureus [7] = experiment: Antimicrobial activity against methicillin-resistant Staphylococcus aureus 75 at 0.5 to 8 uM measured after 18 hrs in presence of ciprofloxacin by checkerboard assay; type: functional, organism-based; details: dose 0.5-8 µM
Staphylococcus aureus [8] = experiment: Antimicrobial activity against ciprofloxacin-resistant Staphylococcus aureus ATCC 25923 at 0.5 to 8 uM measured after 18 hrs in presence of ciprofloxacin by checkerboard assay; type: functional, organism-based; details: dose 0.5-8 µM
Cell membrane [9] = experiment: Induction of membrane disruption in Staphylococcus aureus ATCC 25923 measured after 2 hrs by propidium iodide staining based confocal laser scanning microscopic analysis; type: subcellular
Staphylococcus aureus [10] = experiment: Antibiofilm activity against Staphylococcus aureus ATCC 25923 at 0.5 to 8 uM after 24 hrs in presence of ciprofloxacin by checkerboard assay; type: functional, organism-based; details: dose 0.5-8 µM
Cell membrane [11] = experiment: Induction of membrane disruption in Staphylococcus aureus ATCC 25923 assessed as cell lysis at 4 times MIC measured after 2 to 4 hrs by SEM analysis; type: subcellular; details: time 2-4 hrs
Staphylococcus aureus [12] = experiment: Potentiation of ciprofloxacin-induced antimicrobial activity against ciprofloxacin-resistant Staphylococcus aureus ATCC 25923 at 1 uM after 18 hrs by broth microdilution method; type: functional, organism-based
Erythrocyte = experiment: Hemolytic activity against mouse erythrocytes measured after 1 hr; type: ADME, cell-based
Staphylococcus aureus [13] = experiment: Potentiation of ciprofloxacin-induced antimicrobial activity against ciprofloxacin-resistant Staphylococcus aureus ATCC 25923 assessed as change in ciprofloxacin MIC at 2 uM after 18 hrs by broth microdilution method relative to ciprofloxacin MIC; type: functional
Cell membrane [14] = experiment: Induction of membrane disruption in Staphylococcus aureus ATCC 25923 assessed as membrane blebbing at 2 to 4 times MIC measured after 2 to 4 hrs by SEM analysis; type: subcellular; details: time 2-4 hrs
Staphylococcus aureus [15] = experiment: Potentiation of ciprofloxacin-induced antimicrobial activity against methicillin-resistant Staphylococcus aureus 75 assessed as change in ciprofloxacin MIC at 1 uM after 18 hrs by broth microdilution method relative to ciprofloxacin MIC; type: functional
[16] = system: Staphylococcus epidermidis; experiment: Potentiation of ciprofloxacin-induced antimicrobial activity against ciprofloxacin-resistant Staphylococcus epidermidis ATCC 12228 assessed as ciprofloxacin MIC at 0.5 times MIC after 15 passages by broth microdilution method; type: functional
Staphylococcus aureus [17] = experiment: Antimicrobial activity against Staphylococcus aureus ATCC 29213 after 18 hrs by broth microdilution method; type: functional
Staphylococcus aureus [18] = experiment: Antimicrobial activity against Staphylococcus aureus ATCC 25923 after 18 hrs in presence of NH4Cl by broth microdilution method; type: functional
[19] = system: Staphylococcus epidermidis; experiment: Antimicrobial activity against ciprofloxacin-resistant Staphylococcus epidermidis ATCC 12228 after 18 hrs by broth microdilution method; type: functional, organism-based
Staphylococcus aureus [20] = experiment: Ratio of MIC for antimicrobial activity against Staphylococcus aureus ATCC 25923 in presence of 10% serum to MIC for antimicrobial activity against Staphylococcus aureus ATCC 25923 in absence of serum; type: functional
[21] = system: Staphylococcus epidermidis; experiment: Antimicrobial activity against Staphylococcus epidermidis ATCC 12228 after 18 hrs by broth microdilution method; type: functional
Staphylococcus aureus [22] = experiment: Antibiofilm activity against Staphylococcus aureus ATCC 25923 at 4 to 8 uM after 24 hrs by LIVE/DEAD (SYTO-9/PI) staining based confocal laser scanning microscopic analysis; type: functional, organism-based; details: dose 4-8 µM
Staphylococcus aureus [23] = experiment: Antimicrobial activity against methicillin-resistant Staphylococcus aureus 113 measured after 18 hrs in presence of polymyxin B by checkerboard assay; type: functional, organism-based
Staphylococcus aureus [24] = experiment: Antimicrobial activity against Staphylococcus aureus ATCC 25923 after 18 hrs in presence of 5% serum by broth microdilution method; type: functional
Staphylococcus aureus [25] = experiment: Antibiofilm activity against ciprofloxacin-resistant Staphylococcus aureus ATCC 25923 at 0.5 to 8 uM after 24 hrs by crystal violet staining based assay; type: functional, organism-based; details: dose 0.5-8 µM
Bacillus subtilis = experiment: Antimicrobial activity against Bacillus subtilis ATCC 23857 after 18 hrs by broth microdilution method; type: functional
[26] = Therapeutic index, ratio of MHC for mouse RBC to geometric mean of peptide MIC for Staphylococcus epidermidis ATCC 12228; type: toxicity; details: pooled result: one value given for 6 cell lines, strains, targets or settings, read-out: TI
Staphylococcus aureus [27] = experiment: Antimicrobial activity against ciprofloxacin-treated persistent form of Staphylococcus aureus ATCC 25923 assessed as bacterial killing at 8 times MIC preincubated up to 48 hrs followed by compound washout and subsequent replating on MHB agar by colony counting method; type: functional, organism-based; details: time hrs <=48
Cell membrane [28] = experiment: Induction of membrane disruption in Staphylococcus aureus ATCC 25923 assessed as PI-positive cells at 2 times MIC measured after 2 hrs by propidium iodide staining based flow cytometry relative to control
Staphylococcus aureus [29] = experiment: Potentiation of ciprofloxacin-induced antimicrobial activity against methicillin-resistant Staphylococcus aureus 75 at 0.5 uM after 18 hrs by broth microdilution method; type: functional, organism-based
Staphylococcus aureus [30] = experiment: Antibiofilm activity against Staphylococcus aureus ATCC 25923 assessed as biofilm thickness at 8 uM after 24 hrs using LIVE/LEAD (SYTO-9/PI) staining by confocal laser scanning microscopy based 3D image analysis (reference value: 55 micrometer); type: functional
Cell membrane [31] = experiment: Induction of membrane disruption in Staphylococcus aureus ATCC 25923 assessed as increase in cell content leakage at 4 times MIC measured after 2 to 4 hrs by SEM analysis; type: subcellular; details: time 2-4 hrs
[32] = system: Staphylococcus epidermidis; experiment: Antimicrobial activity against ciprofloxacin-resistant Staphylococcus epidermidis ATCC 12228 after 18 hrs in presence of polymyxin B by checkerboard assay; type: functional, organism-based
Staphylococcus aureus [33] = experiment: Antibiofilm activity against Staphylococcus aureus ATCC 25923 assessed as biofilm thickness at 4 uM after 24 hrs using LIVE/LEAD (SYTO-9/PI) staining by confocal laser scanning microscopy based 3D image analysis (reference value: 55 micrometer); type: functional
Staphylococcus aureus [34] = experiment: Potentiation of ciprofloxacin-induced antimicrobial activity against ciprofloxacin-resistant Staphylococcus aureus ATCC 25923 assessed as ciprofloxacin MIC at 0.5 times MIC after 15 passages by broth microdilution method; type: functional
Staphylococcus aureus [35] = experiment: Antimicrobial activity against Staphylococcus aureus ATCC 25923 after 18 hrs in presence of KCl by broth microdilution method; type: functional

SMILES	Activity (Staphylococcus aureus [1]) [um]	Activity (Cell membrane [2])	Activity (Cell membrane [3])	Activity [4]	fold change (FC) [5]	MIC (Staphylococcus aureus [6]) [µM]	Activity (Staphylococcus aureus [7])	Activity (Staphylococcus aureus [8])	Activity (Cell membrane [9])	Activity (Staphylococcus aureus [10])	Activity (Cell membrane [11])	Activity (Staphylococcus aureus [12])	MHC10 (Erythrocyte) [µM]	fold change (FC) (Staphylococcus aureus [13])	Activity (Cell membrane [14])	fold change (FC) (Staphylococcus aureus [15])	MIC [16] [µM]	MIC (Staphylococcus aureus [17]) [µM]	MIC (Staphylococcus aureus [18]) [µM]	Activity [19]	also measured
CCCCCCCCCCCC(=O)N[C@@H](CCCNC(=N)N)C(=O)N[C@@H](CCCNC(=N)N)C(=O)N[C@@H](Cc1c[nH]c2ccccc12)C(N)=O (Lauroyl-Arg-Arg-Trp-NH2)	40	Active	Active	Active	2	4 (≈ 2.79 µg/mL)	Active	Active	Dose-dependent effect	inactive	Active	inactive	128	2	Active	2	8	4 (≈ 2.79 µg/mL)	4	Active	Ratio (Staphylococcus aureus [20]): 8; MIC [21]: 4 µM (≈ 2.79 µg/mL); Activity (Staphylococcus aureus [22]): Active; Activity (Staphylococcus aureus [23]): Active; MIC (Staphylococcus aureus [24]): 64 µM; Activity (Staphylococcus aureus [25]): Active; MIC (Bacillus subtilis): 4 µM (≈ 2.79 µg/mL); selectivity ratio [26]: 34.9; Activity (Staphylococcus aureus [27]): Active; Activity (Cell membrane [28]): 44.3%; Activity (Staphylococcus aureus [29]): inactive; Activity (Staphylococcus aureus [30]): 20 um; Activity (Cell membrane [31]): Active; Activity [32]: Active; Activity (Staphylococcus aureus [33]): 24 um; MIC (Staphylococcus aureus [34]): 8 µM; MIC (Staphylococcus aureus [35]): 8 µM
CCCCCCCCCCCCCC(=O)N[C@@H](CCCNC(=N)N)C(=O)N[C@@H](Cc1c[nH]c2ccccc12)C(=O)N[C@@H](Cc1c[nH]c2ccccc12)C(N)=O (Myristoyl-Arg-Trp-Trp-NH2)	24	Active	Active	Active	2	8 (≈ 6.05 µg/mL)	Active	Active	Dose-dependent effect	inactive	Active	inactive	> 256	2	Active	2	8	8 (≈ 6.05 µg/mL)	4	Active	Ratio (Staphylococcus aureus [20]): 2; MIC [21]: 16 µM (≈ 12.1 µg/mL); Activity (Staphylococcus aureus [22]): Active; Activity (Staphylococcus aureus [23]): Active; MIC (Staphylococcus aureus [24]): 16 µM; Activity (Staphylococcus aureus [25]): Active; MIC (Bacillus subtilis): 4 µM (≈ 3.02 µg/mL); selectivity ratio [26]: 56.9; Activity (Staphylococcus aureus [27]): Active; Activity (Cell membrane [28]): 74.8%; Activity (Staphylococcus aureus [29]): inactive; Activity (Staphylococcus aureus [30]): 16 um; Activity (Cell membrane [31]): Active; Activity [32]: Active; Activity (Staphylococcus aureus [33]): 30 um; MIC (Staphylococcus aureus [34]): 8 µM; MIC (Staphylococcus aureus [35]): 8 µM
